Active and inactive are the calls of the source. How the calls were made is not given here.
Tested on: rodent carcinogenicity bioassays, tumor incidence
Assay: CCRIS carcinogenicity studies
Details: Dose: 0, Dose: 0
How it was run: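 NCI-built, expert-reviewed records of carcinogenicity and related test outcomes (mutagenicity, tumor promotion/inhibition) compiled from published and report sources, historical span 1985-2011, not updated.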

SMILES: CN(CCCC(=O)c1cccnc1)N=O
- carcinogen call (Species: HAMSTER, Strain/Sex: SYRIAN/FEMALE, Route: INTRATRACHEAL, 0.05, 5, 50 MG/KG ONCE ADMINISTERED TO MOTHERS ON DAY 15 OF GESTATION (STUDY DURATION: 59 WK), 0.05, 5, 50 MG/KG ONCE ADMINISTERED TO MOTHERS ON DAY 15 OF GESTATION (STUDY DURATION: 59 WK), Tumor Site: Type of Lesion: NASAL CAVITY: ADENOCARCINOMA, ADRENAL GLAND: TUMOR, PANCREAS: ADENOMA, Tumor Site: Type of Lesion: NASAL CAVITY: ADENOCARCINOMA, ADRENAL GLAND: TUMOR, PANCREAS: ADENOMA): active; positive
- carcinogen call (Species: HAMSTER, Strain/Sex: SYRIAN/FEMALE, Route: SUBCUTANEOUS, 1, 5, 10, 20 MG/KG ONCE ADMINISTERED TO MOTHERS ON DAY 15 OF GESTATION (STUDY DURATION: 59 WK), 1, 5, 10, 20 MG/KG ONCE ADMINISTERED TO MOTHERS ON DAY 15 OF GESTATION (STUDY DURATION: 59 WK), Tumor Site: Type of Lesion: NASAL CAVITY: ADENOCARCINOMA, ADRENAL GLAND: TUMOR): active; positive
- carcinogen call (Species: HAMSTER, Strain/Sex: SYRIAN/FEMALE, Route: TRANSPLACENTAL, 50 MG/KG IN DISTILLED WATER ADMINISTERED INTRATRACHEALLY TO MOTHERS ON DAY 15 OF GESTATION (STUDY DURATION: 48 WK), Tumor Site: Type of Lesion: ADRENAL GLAND: TUMOR, COLON: TUMOR, LYMPHOID TISSUE: LYMPHOMA, Tumor Site: Type of Lesion: ADRENAL GLAND: TUMOR, COLON: TUMOR, LYMPHOID TISSUE: LYMPHOMA): active; positive
- carcinogen call (Species: HAMSTER, Strain/Sex: SYRIAN/MALE, Route: INTRATRACHEAL, 0.05, 5, 50 MG/KG ONCE ADMINISTERED TO MOTHERS ON DAY 15 OF GESTATION (STUDY DURATION: 59 WK), 0.05, 5, 50 MG/KG ONCE ADMINISTERED TO MOTHERS ON DAY 15 OF GESTATION (STUDY DURATION: 59 WK), Tumor Site: Type of Lesion: NASAL CAVITY: ADENOCARCINOMA, ADRENAL GLAND: TUMOR): active; positive
- carcinogen call (Species: HAMSTER, Strain/Sex: SYRIAN/MALE, Route: SUBCUTANEOUS, 1, 5, 10, 20 MG/KG ONCE ADMINISTERED TO MOTHERS ON DAY 15 OF GESTATION (STUDY DURATION: 59 WK), 1, 5, 10, 20 MG/KG ONCE ADMINISTERED TO MOTHERS ON DAY 15 OF GESTATION (STUDY DURATION: 59 WK), Tumor Site: Type of Lesion: NASAL CAVITY: ADENOCARCINOMA, ADRENAL GLAND: TUMOR): active; positive
- carcinogen call (Species: HAMSTER, Strain/Sex: SYRIAN/MALE, Route: TRANSPLACENTAL, 50 MG/KG IN DISTILLED WATER ADMINISTERED INTRATRACHEALLY TO MOTHERS ON DAY 15 OF GESTATION (STUDY DURATION: 48 WK), Tumor Site: Type of Lesion: NASAL CAVITY: TUMOR): active; positive
- carcinogen call (Species: MOUSE, Strain/Sex: C3B6F1/FEMALE, Route: TRANSPLACENTAL, 100 MG/KG (0.5 MMOL) IN 0.9% STERILE SALINE ADMINISTERED INTRAPERITONEALLY ON DAYS 14, 16 AND 18 OF GESTATION (STUDY): inactive; negative
- carcinogen call (Species: MOUSE, Strain/Sex: C3B6F1/MALE, Route: TRANSPLACENTAL, 100 MG/KG (0.5 MMOL) IN 0.9% STERILE SALINE ADMINISTERED INTRAPERITONEALLY ON DAYS 14, 16 AND 18 OF GESTATION (STUDY, Tumor Site: Type of Lesion: LIVER: HEPATOCELLULAR ADENOMA OR CARCINOMA): active; positive
- carcinogen call (Species: MOUSE, Strain/Sex: C3H/HE/FEMALE, Route: INTRAPERITONEAL, 100 MG/KG (0.5 MMOL) IN 0.9% STERILE SALINE ONCE ON DAYS 14, 16 AND 18 OF PREGNANCY (STUDY DURATION: 24 WK), Tumor Site: Type of Lesion: LUNG: TUMOR): active; positive
- carcinogen call (Species: MOUSE, Strain/Sex: STRAIN-A/FEMALE, Route: GAVAGE, 1, 2, 3 UMOL IN 0.1 ML COTTONSEED OIL 1/WK FOR 8 WK (STUDY DURATION: 26 WK), 1, 2, 3 UMOL IN 0.1 ML COTTONSEED OIL 1/WK FOR 8 WK (STUDY DURATION: 26 WK), Tumor Site: Type of Lesion: LUNG: ADENOMA): active; positive
- carcinogen call (Species: MOUSE, Strain/Sex: STRAIN-A/FEMALE, Route: INTRAPERITONEAL, 1, 2, 3 UMOL IN 0.1 ML COTTONSEED OIL 1/WK FOR 8 WK (STUDY DURATION: 26 WK), 1, 2, 3 UMOL IN 0.1 ML COTTONSEED OIL 1/WK FOR 8 WK (STUDY DURATION: 26 WK), Tumor Site: Type of Lesion: LUNG: ADENOMA): active; positive
- carcinogen call (Species: MOUSE, Strain/Sex: STRAIN-A/FEMALE, Route: INTRAPERITONEAL, 5, 20 UMOL TOTAL DOSE ADMINISTERED IN SUBDOSES 3/WK FOR 7 WK (STUDY DURATION: 37 WK), 5, 20 UMOL TOTAL DOSE ADMINISTERED IN SUBDOSES 3/WK FOR 7 WK (STUDY DURATION: 37 WK), Tumor Site: Type of Lesion: LUNG: TUMOR): active; positive
- carcinogen call (Species: MOUSE, Strain/Sex: STRAIN-A/FEMALE, Route: INTRAPERITONEAL, 20 UMOL MOUSE (TOTAL DOSE) ADMINISTERED IN 0.1 ML SALINE 3/WK (TOTAL 20 INJECTIONS) (STUDY DURATION: 37 WK), Tumor Site: Type of Lesion: LUNG: ADENOCARCINOMA, ADENOMA): active; positive
- carcinogen call (Species: MOUSE, Strain/Sex: STRAIN-A/FEMALE, Route: TRANSPLACENTAL, 100 MG/KG (0.5 MMOL) IN 0.9% STERILE SALINE ADMINISTERED INTRAPERITONEALLY ON DAYS 14, 16 AND 18 OF GESTATION (STUDY, Tumor Site: Type of Lesion: LUNG: TUMOR): active; positive
- carcinogen call (Species: MOUSE, Strain/Sex: STRAIN-A/MALE, Route: TRANSPLACENTAL, 100 MG/KG (0.5 MMOL) IN 0.9% STERILE SALINE ADMINISTERED INTRAPERITONEALLY ON DAYS 14, 16 AND 18 OF GESTATION (STUDY): inactive; negative
- carcinogen call (Species: MOUSE, Strain/Sex: SWISS/FEMALE, Route: INTRAPERITONEAL, 50 MG/KG IN STERILE SALINE ADMINISTERED ON POSTNATAL D 1, 3, 5, 7 AND 10 (STUDY DURATION: 15 MO), Tumor Site: Type of Lesion: LIVER: HEPATOCELLULAR ADENOMA OR CARCINOMA, LUNG: TUMOR): active; positive
- carcinogen call (Species: MOUSE, Strain/Sex: SWISS/FEMALE, Route: TRANSPLACENTAL, 100 MG/KG (0.5 MMOL) IN 0.9% STERILE SALINE ADMINISTERED INTRAPERITONEALLY ON DAYS 15, 17 AND 19 OF GESTATION (STUDY): inactive; negative
- carcinogen call (Species: MOUSE, Strain/Sex: SWISS/MALE, Route: INTRAPERITONEAL, 50 MG/KG IN STERILE SALINE ADMINISTERED ON POSTNATAL D 1, 3, 5, 7 AND 10 (STUDY DURATION: 15 MO), Tumor Site: Type of Lesion: LIVER: HEPATOCELLULAR ADENOMA OR CARCINOMA, LUNG: TUMOR): active; positive
- carcinogen call (Species: MOUSE, Strain/Sex: SWISS/MALE, Route: TRANSPLACENTAL, 100 MG/KG (0.5 MMOL) IN 0.9% STERILE SALINE ADMINISTERED INTRAPERITONEALLY ON DAYS 15, 17 AND 19 OF GESTATION (STUDY): inactive; negative
- carcinogen call (Species: RAT, Strain/Sex: F344/FEMALE, Route: GAVAGE, 11 MG/WK FOR A TOTAL DOSE OF 1.3 MMOL (STUDY DYRATION: 50 WK), Tumor Site: Type of Lesion: LIVER: TUMOR, LUNG: TUMOR, NASAL MUCOSA: TUMOR, Tumor Site: Type of Lesion: LIVER: TUMOR, LUNG: TUMOR, NASAL MUCOSA: TUMOR): active; positive
- carcinogen call (Species: RAT, Strain/Sex: F344/FEMALE, Route: INTRAVESICULAR, 5.5 MG IN 0.2 ML ETHANOL: DEIONIZED WATER (1:3) 2/WK FOR 30 WK (TOTAL DOSE 1.5 MMOL) (STUDY DURATION: LIFESPAN), Tumor Site: Type of Lesion: LUNG: TUMOR, LIVER: TUMOR): active; positive
- carcinogen call (Species: RAT, Strain/Sex: F344/FEMALE, Route: SUBCUTANEOUS, 1, 3, 9 MMOL/KG BW (TOTAL DOSE) WITH SUBDOSES GIVEN 3/WK FOR 20 WK WITH A 2 WK INTERRUPTION AFTER 7 WK (STUDY DURATIO, 1, 3, 9 MMOL/KG BW (TOTAL DOSE) WITH SUBDOSES GIVEN 3/WK FOR 20 WK WITH A 2 WK INTERRUPTION AFTER 7 WK (STUDY DURATIO, Tumor Site: Type of Lesion: NASAL CAVITY: TUMORS, LUNG: TUMORS, LIVER: TUMORS, Tumor Site: Type of Lesion: NASAL CAVITY: TUMORS, LUNG: TUMORS, LIVER: TUMORS): active; positive
- carcinogen call (Species: RAT, Strain/Sex: F344/MALE, Route: MUCOUS MEMBRANE, 0.3 ML OF A 15 MMOL WATER SOLUTION 1/D 3 D/WK FOR 1 WK THEN 1/D 5 D/WK FOR WK 2-4 THEN 2/D 5 D/WK FOR WK 5-61 (STUDY, Tumor Site: Type of Lesion: LUNG: ADENOSQUAMOUS CARCINOMA, ADENOCARCINOMA, ADENOMA, NASAL CAVITY: CARCINOMA, PAPILLOMA, ADENOMA, ORAL CAVITY: PAPILL, Tumor Site: Type of Lesion: LUNG: ADENOSQUAMOUS CARCINOMA, ADENOCARCINOMA, ADENOMA, NASAL CAVITY: CARCINOMA, PAPILLOMA, ADENOMA, ORAL CAVITY: PAPILL): active; positive
- carcinogen call (Species: RAT, Strain/Sex: F344/MALE, Route: ORAL, 0.5, 1, 5 PPM IN DRINKING WATER FOR DURATION OF STUDY (TOTAL DOSE: 0; 0.073; 0.17; 0.68 MMOL/KG) (STUDY DURATION: 128, 0.5, 1, 5 PPM IN DRINKING WATER FOR DURATION OF STUDY (TOTAL DOSE: 0; 0.073; 0.17; 0.68 MMOL/KG) (STUDY DURATION: 128, Tumor Site: Type of Lesion: NASAL CAVITY: TUMOR, LIVER: ADENOMA, HEPATOMA, LUNG: ADENOMA, ADENOCARCINOMA, ADENOSQUAMOUS CARCINOMA, SQUAMOUS CELL CAR, Tumor Site: Type of Lesion: NASAL CAVITY: TUMOR, LIVER: ADENOMA, HEPATOMA, LUNG: ADENOMA, ADENOCARCINOMA, ADENOSQUAMOUS CARCINOMA, SQUAMOUS CELL CAR): active; positive
- carcinogen call (Species: RAT, Strain/Sex: F344/MALE, Route: SUBCUTANEOUS, 1, 3, 9 MMOL/KG BW (TOTAL DOSE) WITH SUBDOSES GIVEN 3/WK FOR 20 WK WITH A 2 WK INTERRUPTION AFTER 7 WK (STUDY DURATIO, 1, 3, 9 MMOL/KG BW (TOTAL DOSE) WITH SUBDOSES GIVEN 3/WK FOR 20 WK WITH A 2 WK INTERRUPTION AFTER 7 WK (STUDY DURATIO, Tumor Site: Type of Lesion: NASAL CAVITY: TUMORS, LUNG: TUMORS, LIVER: TUMORS, Tumor Site: Type of Lesion: NASAL CAVITY: TUMORS, LUNG: TUMORS, LIVER: TUMORS): active; positive
